The values that follow come from patent US12465607B2, “ALK inhibitors for treatment of ALK-negative cancer and plasma cell-mediated diseases” (UNIVERSITETET I OSLO, priority 2019, dated 2025).

One assay deals with L363-BTZ. In words: Myeloma cell line viability, CCK-8, 24 hr. Format: cell-based, human. The procedure: (§1) The Results are the means of 3 independent experiments. Note the concentration-dependent reduction of viability of myeloma cells.
(§2) The cell lines used were the human multiple myeloma cell lines L363 (DSMZ catalogue number ACC 49), AMO-1 (DSMZ catalogue number ACC 538) and ARH-77 (ATCC CRL-1621).
(§3) Multiple myeloma cell lines were maintained in RPMI-1640 culture medium (Sigma-Aldrich, Buchs, Switzerland) supplemented with 10% heat-inactivated fetal bovine serum (FBS), 100 μg/ml streptomycin and 100 U/ml penicillin/streptomycin (Sigma-Aldrich, Buchs, Switzerland). The bortezomib-resistant cell lines were established and maintained from their parental cell line by continuous drug exposure>12 months to their parental cell lines (Soriano et al, Leukemia 30: 2198-2207, 2016).
(§4) The viability of the cells was determined 24 hr post treatment using Cell Counting Kit-8 (CCK-8; MedChemExpress, NJ, USA) according to the manufacturer's instructions.

The subject of a further assay is L363. In words: Myeloma cell line viability, CCK-8, 24 hr. Type of assay: cell-based, human. The procedure:
as §1, §2, §3, §4

Assay [1] has as its system CD138+ multiple myeloma cells. The assay can be described thus: Viability of patient CD138+ multiple myeloma cells, CellTiterGlo 72 hr. Format: cell-based. The settings on record: Homo sapiens, Multiple myeloma cell, patient-derived CD138+ multiple myeloma cells.
Description: Viability was measured by CellTiterGlo.
Seven multiple myeloma patient samples were included. Patients were due for treatment after second relapse (patient number 1701), third relapse (2101, 2021, 1802, 9041, 2504) or fourth relapse (2201).
Bone marrow mononuclear cells (BMMCs) were prepared from patient bone marrow aspirates by Lymphoprep density gradient centrifugation. After CD8 depletion by Dynabeads (Life Technologies) BMMCs were subsequently stimulated by expanding Th cells in the presence of Human T-Activator CD3/CD28 Dynabeads (Life Technologies) and 100 U/ml human interleukin-2 (hIL-2, Roche, Mannheim, Germany). After 48 h, BMMCs were subjected to CD138+ enrichment to isolate multiple myeloma plasma cells using MACS CD138+ microbeads (Milteny Biotec, Bergisch Gladbach, Germany).
6 crizotinib concentrations were tested, in 10-fold dilutions covering a 0.1-10,000 nM concentration range (plates dispensed by an Echo acoustic dispenser, LabCyte Inc., San Jose, CA, USA).
The plate was incubated in a humidified environment at 37° C. and 5% CO2. Cell viability was determined after 72 hr using the CellTiterGlo (Promega, Madison, WI, USA) ATP assay according to the manufacturer's instructions and using an Envision Xcite plate reader (Perkin Elmer, Shelton, CT, USA). […]
The next assay relates to L363wt plasma cell lines. The assay can be described thus: Intrafemoral Luciferase+ L363wt plasma cell line xenograft in NSG mice, IVIS imaging. Format: in vivo. The settings on record: 50 mg/kg, orally, daily, 7 days. The procedure: Luciferase^+ L363wt plasma cell lines were injected intrafemorally into immunocompromised NSG mice. After 10 days, mice were treated with crizotinib (50 mg/kg, orally, daily) every day for 7 days.
Mice were imaged on an IVIS optical imager on days 10, 14 and 17. Ventral aspects of 3 (of 4) mice are shown. Mice received vehicle (top) or crizotinib (bottom).

The next assay has as its target T1, LTK (Homo sapiens, UniProt P29376).
T1 construct: expressed in transfected cells; host or cells: HeLa cells
As to conditions: Centonze et al.; cited from earlier work.

Assay [2] concerns B-cell blasts (plasma blasts/cells). The assay can be described thus: Viability of in vitro-generated B-cell blasts (plasma blasts/cells), CellTiterGlo 72 h. Format: cell-based. As to conditions: Homo sapiens, day 3 B-cell blasts from 5 donors. The procedure:
CD19^+ B-cells from 5 blood bank donors were stimulated by adherent murine L cells expressing CD40L, BAFF and April for 3 days to make B-cell blasts (plasma blasts/cells). plasma blasts/cells were tested for sensitivity to crizotinib for 72 h (CellTiterGlo).
CD19^+ B-cells from 5 blood bank donors were stimulated by adherent murine L cells expressing CD40L, BAFF and April for 3 days to make B-cell blasts (plasma blasts/cells). Washed plasma blasts/cells were detached and plated into 384 well format (10,000 cells/well) and tested against crizotinib at 6 concentrations in 10-fold dilutions covering a 10^−3-10 μM concentration range. Cell viability was determined after 72 h using the CellTiterGlo. Relative percentage cell viability was calculated by normalising luminescence units for each well to negative controls (DMSO 0.1%) and positive control wells (100 μM BzCl) and curve-fitting conducted to obtain the IC50.
(In general: In ATP-based viability assays light output follows the ATP content of the culture.)

The test system of a further assay is L363 cells. The assay can be described thus: ER stress in L363 cells (spliced vs non-spliced XBP1, ATF4; RT-PCR). Format: cell-based, human. The settings on record: 5 μM, 4, 8 and 12 h. The method, then: A, L363 cells were treated with 5 μM crizotinib and the expression of spliced vs non-spliced XBP1 and ATF4 was determined 4, 8 and 12 h post-treatment. Splicing of XBP1 and accumulation of ATF4 are signs of the induction of ER stress. B, Bortezomib-resistant L363aBTZ cells were treated with 5 μM crizotinib and the expression of spliced vs non-spliced XBP1 and ATF4 was determined at 4, 8 and 12 h post-treatment. C, HeLa cells expressing inducible IgM (heavy and light chain) were treated with mifepristone to induce IgM expression over a period of 2 weeks. Afterwards, cells were treated with 1 μM crizotinib for 24 h followed by lysis and immunoblotting against spliced XBP1 to measure ER stress. + and − indicate cells with or without mifepristone treatment, respectively. Induced cells are considered hypersecretory and non-induced cells have a normal level of secretion. Numbers above the blot show the quantification of densitometric measurements from three independent experiments ±SD.
Total RNA was isolated from cell lines using Trizol (Ambion/Thermo Fisher Scientific, MA, USA) and Direct-zol RNA MiniPrep (Zymo Research, CA, USA). 500 ng of total RNA was reverse transcribed using High Capacity cDNA Reverse Transcription kit (Applied Biosystems/Thermo Fisher Scientific, MA, USA) according to the manufacturer's instructions. […]

The test system of assay [3] is human L363-BTZ (bortezomib-resistant) myeloma cells. In words: Intrafemoral L363-BTZ luciferase xenograft in NSG mice. Type of assay: in vivo. The settings on record: 7 days treatment from day 10; crizotinib 50 mg/kg orally daily; bortezomib 1 mg/kg i.v. twice. The procedure: In this figure, immunocompromised NSG mice were intrafemorally injected with human L363-BTZ (bortezomib-resistant) myeloma cells. The cells were equipped with luciferase for in vivo monitoring of disease progression. After 10 days, mice were treated with bortezomib i.v. twice over a 7 day period and with crizotinib orally every day over the 7 day period. The images on the left show examples of tumour load in the different groups at days 4 and 7 of treatment (days 14 and 17 post tumour inoculation), and the graph on the right depicts the average luciferase signal for each mouse in each cohort (n=4) normalised to day 0 of the treatment (day 10 post tumour inoculation). Statistical significance between the groups was assessed with two-way ANOVA and between the time-points using one-way ANOVA with Tukey post-test.
NSG (NOD-scid IL2Rgamma^null) mice were obtained from The Jackson Laboratory (No. 005557, CA, USA) and kept in isolated ventilated cages with food ad libitum. Age matched (6-8 weeks old) mice were injected with 0.5×10^5 L363-BTZ_Luc+_TdTomato+ multiple myeloma cells (equipped with luciferase vector for monitoring, obtained from Addgene: #72486) into the right femur. Tumour growth was monitored twice over the week following luciferin injection (150 mg/kg, obtained from BioVision, CA, USA). […]

The subject of another assay is AMO-1-BTZ. The assay can be described thus: Myeloma cell line viability, CCK-8, 24 hr. As to conditions: Homo sapiens, 24 hr treatment. Format: cell-based. The procedure:
as §1, §2, §3, §4

A further assay relates to AMO-1. In words: Myeloma cell line viability, CCK-8, 24 hr. As to conditions: Homo sapiens, AMO1; AMO-1, 24 hr treatment. Type of assay: cell-based. The method, then: as §1, §2, §3, §4

T1 sequence (P29376 17-864): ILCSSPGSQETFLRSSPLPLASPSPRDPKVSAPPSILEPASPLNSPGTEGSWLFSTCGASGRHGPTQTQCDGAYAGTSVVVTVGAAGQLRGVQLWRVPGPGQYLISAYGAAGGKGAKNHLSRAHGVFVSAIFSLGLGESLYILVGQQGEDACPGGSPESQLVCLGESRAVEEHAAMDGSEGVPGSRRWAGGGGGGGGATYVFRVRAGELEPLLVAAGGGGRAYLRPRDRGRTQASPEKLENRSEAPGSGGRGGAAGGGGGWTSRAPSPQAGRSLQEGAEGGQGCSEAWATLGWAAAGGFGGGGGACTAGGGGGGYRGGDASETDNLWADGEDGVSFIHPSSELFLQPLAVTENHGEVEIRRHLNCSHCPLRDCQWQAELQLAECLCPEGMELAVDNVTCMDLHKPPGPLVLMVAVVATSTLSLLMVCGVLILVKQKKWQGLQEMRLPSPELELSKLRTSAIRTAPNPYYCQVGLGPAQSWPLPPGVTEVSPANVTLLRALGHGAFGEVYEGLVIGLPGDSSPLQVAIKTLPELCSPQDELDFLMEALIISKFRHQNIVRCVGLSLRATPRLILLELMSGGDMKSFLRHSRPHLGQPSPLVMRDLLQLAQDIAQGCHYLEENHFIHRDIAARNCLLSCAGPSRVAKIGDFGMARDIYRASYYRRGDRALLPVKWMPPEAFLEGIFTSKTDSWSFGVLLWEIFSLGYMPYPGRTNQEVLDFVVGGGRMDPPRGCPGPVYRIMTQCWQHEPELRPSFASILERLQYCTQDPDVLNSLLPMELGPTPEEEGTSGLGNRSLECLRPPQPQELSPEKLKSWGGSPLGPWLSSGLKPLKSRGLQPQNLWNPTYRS

`C[C@@H](Oc1cc(-c2cnn(C3CCNCC3)c2)cnc1N)c1c(Cl)ccc(F)c1Cl` [crizotinib, 3-[(1R)-1-(2,6-dichloro-3-fluorophenyl)ethoxy]-5-(1-piperidin-4-ylpyrazol-4-yl)pyridin-2-amine]: the IC50 with L363-BTZ (Homo sapiens, L363-BTZ, 24 hr treatment) is 4.15 µM; with L363 (Homo sapiens, L-363, L363, 24 hr treatment), 3.32 µM; in assay [1], 0.8 to 5 µM; in assay [2] it was 1 to 1.5 µM; with AMO-1-BTZ, 6.48 µM; in the assay on AMO-1, 3.92 µM. The cell viability entry in the assay on L363-BTZ (bortezomib-resistant clone of L363, 24 h) is “The same was found to be the case”; in the assay with L363 (L363, 24 h) it was “clear reductions in cell viability”. Besides, the “mice with dramatically reduced signals from plasma cells” value with L363wt plasma cell lines is given as 3 of 4. In addition, in the assay on L363wt plasma cell lines, the “plasma cell density (luciferase dependent signals)” value is listed as “reduced plasma cell density”. Moreover, on LTK, the “inhibition of LTK (previously shown)” value was “previously been shown to inhibit LTK”. Besides, in the assay with L363 cells, the “ER stress (splicing of XBP1, induction of ATF4)” value is “induced ER stress”. Besides, in assay [3], the “tumour burden (luciferase signal)” value is “reduction in tumour burden”.

In general, IC50 refers to the midpoint of a concentration-inhibition curve.
